According to patent US12486267B2, “Imidazo[1,2-A]pyridine and [1,2,4]triazolo[1,5-A]pyridine derivatives as TLR9 inhibitors for the treatment of fibrosis” (BRISTOL-MYERS SQUIBB COMPANY, priority 2020, dated 2025):

Legend:
Type in all cases: cell-based
human TLR7 = target: T1, human TLR7 (Homo sapiens, UniProt Q9NYK1); experiment: TLR7 inhibition reporter assay (HEK-Blue cells, SEAP reporter); conditions: HEK-Blue cells overexpressing human TLR7; stimulated with gardiquimod 7.5 μM; 22 hour incubation; SEAP readout
T1 sequence (Q9NYK1 27-1049): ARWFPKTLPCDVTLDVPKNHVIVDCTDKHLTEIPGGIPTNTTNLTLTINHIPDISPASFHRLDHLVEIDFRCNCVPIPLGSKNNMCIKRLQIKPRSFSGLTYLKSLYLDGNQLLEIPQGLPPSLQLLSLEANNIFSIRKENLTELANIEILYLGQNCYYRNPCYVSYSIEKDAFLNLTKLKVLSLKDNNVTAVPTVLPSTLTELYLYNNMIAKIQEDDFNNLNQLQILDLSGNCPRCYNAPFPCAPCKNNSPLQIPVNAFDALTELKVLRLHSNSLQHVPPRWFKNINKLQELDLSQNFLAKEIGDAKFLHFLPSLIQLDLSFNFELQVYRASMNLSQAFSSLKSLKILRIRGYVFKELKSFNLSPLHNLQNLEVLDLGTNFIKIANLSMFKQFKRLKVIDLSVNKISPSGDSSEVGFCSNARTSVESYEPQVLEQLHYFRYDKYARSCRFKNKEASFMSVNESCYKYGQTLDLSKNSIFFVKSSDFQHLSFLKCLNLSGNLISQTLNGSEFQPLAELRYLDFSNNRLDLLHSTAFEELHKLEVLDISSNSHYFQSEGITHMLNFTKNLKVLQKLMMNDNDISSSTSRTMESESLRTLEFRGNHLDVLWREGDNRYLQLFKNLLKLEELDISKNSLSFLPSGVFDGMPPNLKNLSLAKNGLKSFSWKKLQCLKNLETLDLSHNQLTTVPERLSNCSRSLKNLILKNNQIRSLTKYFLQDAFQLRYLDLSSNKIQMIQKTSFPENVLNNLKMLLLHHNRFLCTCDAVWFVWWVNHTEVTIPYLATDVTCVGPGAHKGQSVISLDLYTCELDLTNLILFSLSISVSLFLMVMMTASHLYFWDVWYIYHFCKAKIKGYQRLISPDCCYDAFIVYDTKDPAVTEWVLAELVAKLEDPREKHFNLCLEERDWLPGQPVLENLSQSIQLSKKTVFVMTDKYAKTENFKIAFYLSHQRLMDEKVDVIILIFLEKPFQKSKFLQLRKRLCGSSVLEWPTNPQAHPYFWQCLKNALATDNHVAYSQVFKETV
Procedure, shortened: (§1)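 HEK-Blue cells with an NF-κB/AP-1-driven SEAP reporter were pre-treated 30 min at room temperature with compound (0.05 nM–50 μM), then stimulated with gardiquimod 7.5 μM (TLR7), R848 15.9 μM (TLR8) or ODN2006 5 nM (TLR9). After 22 h at 37 °C, SEAP was read; % inhibition was referenced to agonist+DMSO and known-inhibitor wells.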

human TLR8 = target: T2, human TLR8 (Homo sapiens, UniProt Q9NR97); experiment: TLR8 inhibition reporter assay (HEK-Blue cells, SEAP reporter); conditions: HEK-Blue cells overexpressing human TLR8; stimulated with R848 15.9 μM; 22 hour incubation; SEAP readout
T2 sequence (Q9NR97 27-1041): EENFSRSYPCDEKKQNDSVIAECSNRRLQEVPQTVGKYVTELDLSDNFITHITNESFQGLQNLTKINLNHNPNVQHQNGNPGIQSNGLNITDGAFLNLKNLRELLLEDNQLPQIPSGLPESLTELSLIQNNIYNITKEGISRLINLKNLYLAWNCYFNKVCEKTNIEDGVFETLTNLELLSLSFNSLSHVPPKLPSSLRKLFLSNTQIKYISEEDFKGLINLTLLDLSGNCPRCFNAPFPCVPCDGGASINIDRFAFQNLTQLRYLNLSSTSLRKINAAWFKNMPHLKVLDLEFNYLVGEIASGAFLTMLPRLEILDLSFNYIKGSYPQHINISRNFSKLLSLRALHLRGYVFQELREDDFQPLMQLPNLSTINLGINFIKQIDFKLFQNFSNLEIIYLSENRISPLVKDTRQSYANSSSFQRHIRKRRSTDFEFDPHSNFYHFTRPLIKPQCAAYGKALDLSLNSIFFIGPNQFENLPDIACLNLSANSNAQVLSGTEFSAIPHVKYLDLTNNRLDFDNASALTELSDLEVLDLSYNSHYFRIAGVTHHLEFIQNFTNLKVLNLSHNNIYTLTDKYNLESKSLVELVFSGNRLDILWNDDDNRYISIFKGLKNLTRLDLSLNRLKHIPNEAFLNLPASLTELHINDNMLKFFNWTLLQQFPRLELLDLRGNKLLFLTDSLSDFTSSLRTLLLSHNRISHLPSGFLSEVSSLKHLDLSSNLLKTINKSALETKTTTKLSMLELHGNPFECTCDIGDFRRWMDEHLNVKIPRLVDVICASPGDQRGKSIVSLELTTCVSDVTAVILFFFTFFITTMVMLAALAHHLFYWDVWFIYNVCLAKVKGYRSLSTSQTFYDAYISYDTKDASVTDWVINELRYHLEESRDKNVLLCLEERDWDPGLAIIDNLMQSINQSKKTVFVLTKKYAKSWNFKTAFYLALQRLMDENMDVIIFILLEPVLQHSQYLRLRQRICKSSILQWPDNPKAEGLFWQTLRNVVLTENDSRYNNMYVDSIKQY
Procedure, shortened: as §1

human TLR9 = target: T3, human TLR9 (Homo sapiens, UniProt Q9NR96); experiment: TLR9 inhibition reporter assay (HEK-Blue cells, SEAP reporter); conditions: HEK-Blue cells overexpressing human TLR9; stimulated with ODN2006 5 nM; 22 hour incubation; SEAP readout
T3 sequence (Q9NR96 26-1032): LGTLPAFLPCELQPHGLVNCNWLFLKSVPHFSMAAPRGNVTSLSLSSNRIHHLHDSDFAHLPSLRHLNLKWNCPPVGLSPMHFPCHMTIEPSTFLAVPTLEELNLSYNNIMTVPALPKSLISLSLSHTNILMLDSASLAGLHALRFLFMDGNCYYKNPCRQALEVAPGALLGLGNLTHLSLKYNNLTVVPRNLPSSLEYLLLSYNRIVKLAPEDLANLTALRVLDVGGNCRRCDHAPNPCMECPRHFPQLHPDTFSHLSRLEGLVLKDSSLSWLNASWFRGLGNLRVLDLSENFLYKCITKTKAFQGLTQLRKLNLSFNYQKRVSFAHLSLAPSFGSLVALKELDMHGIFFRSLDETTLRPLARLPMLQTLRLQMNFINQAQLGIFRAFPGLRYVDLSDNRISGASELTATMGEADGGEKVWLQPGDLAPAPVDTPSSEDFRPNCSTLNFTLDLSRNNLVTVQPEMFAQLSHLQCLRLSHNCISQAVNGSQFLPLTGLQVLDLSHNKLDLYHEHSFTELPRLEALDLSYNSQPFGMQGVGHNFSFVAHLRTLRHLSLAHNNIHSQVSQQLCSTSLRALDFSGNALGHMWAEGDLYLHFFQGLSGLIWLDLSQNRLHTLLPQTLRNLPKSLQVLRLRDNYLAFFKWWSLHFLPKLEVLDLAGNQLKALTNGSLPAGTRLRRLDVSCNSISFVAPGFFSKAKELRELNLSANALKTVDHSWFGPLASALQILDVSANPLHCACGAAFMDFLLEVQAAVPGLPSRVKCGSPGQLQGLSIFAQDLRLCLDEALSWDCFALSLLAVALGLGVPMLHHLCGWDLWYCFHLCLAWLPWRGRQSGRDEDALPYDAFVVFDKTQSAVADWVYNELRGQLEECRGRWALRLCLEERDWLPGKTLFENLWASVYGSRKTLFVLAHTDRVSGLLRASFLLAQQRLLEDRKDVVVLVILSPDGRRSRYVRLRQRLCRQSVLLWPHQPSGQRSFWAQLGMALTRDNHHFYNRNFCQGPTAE
Procedure, shortened: as §1

IC50 (human TLR7) [µM]	IC50 (human TLR8) [µM]	IC50 (human TLR9) [µM]	Structure (SMILES)
5.5	> 50	0.146	COc1ccc(-c2cn3cc(C4CCN(C5CCN(C6CC6)CC5)CC4)cc(C)c3n2)cc1F [Example 4, 6-(1′-cyclopropyl-[1,4′-bipiperidin]-4-yl)-2-(3-fluoro-4-methoxyphenyl)-8-methylimidazo[1,2-a]pyridine]
7.8	> 50	0.132	Cc1cc(C2CCN(C3CCN(C4CC4)CC3)CC2)cn2cc(-c3ccc(S(C)(=O)=O)cc3)nc12 [Example 7, 6-(1′-cyclopropyl-[1,4′-bipiperidin]-4-yl)-8-methyl-2-(4-(methylsulfonyl)phenyl) imidazo[1,2-a]pyridine]
18.4	14	0.803	Cc1cc(-c2ccc(N3CCN(CC4CCC4)CC3)cc2)cn2cc(-c3ccc(S(C)(=O)=O)cc3)nc12 [Example 101, 6-(4-(4-(cyclobutylmethyl)piperazin-1-yl)phenyl)-8-methyl-2-(4-(methylsulfonyl)phenyl)imidazo[1,2-a]pyridine]
2.8	> 50	0.038	COc1ccc(-c2cn3c(n2)CCC(C2CCN(C4CCN(CC(C)C)CC4)CC2)C3)cc1OC (single isomer, unassigned) [Example 32, 2-(3,4-dimethoxyphenyl)-6-(1′-isobutyl-[1,4′-bipiperidin]-4-yl)-5,6,7,8-tetrahydroimidazo[1,2-a]pyridine]
3.3	> 50	0.042	Cc1cc(C2CCN(C3CCN(CC(C)C)CC3)CC2)cn2cc(-c3ccc(S(C)(=O)=O)cc3)nc12 [Example 9, 6-(1′-isobutyl-[1,4′-bipiperidin]-4-yl)-8-methyl-2-(4-(methylsulfonyl)phenyl) imidazo[1,2-a]pyridine]
4.5	> 50	0.098	CS(=O)(=O)c1ccc(-c2cn3cc(C4CCN(C5CCN(C6CCOCC6)CC5)CC4)cc(F)c3n2)cc1 [Example 112, 8-fluoro-2-(4-(methylsulfonyl)phenyl)-6-(1′-(tetrahydro-2H-pyran-4-yl)-[1,4′-bipiperidin]-4-yl)imidazo[1,2-a]pyridine]
1.5	> 50	0.023	COc1ccc(-c2cn3cc(C4CCN(C5CC6CCC(C5)N6CC5CC5)CC4)cc(C)c3n2)cc1OC (single isomer, unassigned) [Example 20, 6-(1-(8-(cyclopropylmethyl)-8-azabicyclo[3.2.1]octan-3-yl)piperidin-4-yl)-2-(3,4-dimethoxyphenyl)-8-methylimidazo[1,2-a]pyridine]
10.6	> 50	0.03	CS(=O)(=O)c1ccc(-c2cn3cc(C4CCN(C5CC6CCC(C5)N6C5COC5)CC4)cc(F)c3n2)cc1 (single isomer, unassigned) [Example 119, 8-fluoro-2-(4-(methylsulfonyl)phenyl)-6-(1-(8-(oxetan-3-yl)-8-azabicyclo[3.2.1]octan-3-yl)piperidin-4-yl)imidazo[1,2-a]pyridine]
> 50	> 50	0.052	CC(C)CN1C2CCC1CC(N1CCC([C@H]3CCc4nc(-c5ccc(S(C)(=O)=O)cc5)cn4C3)CC1)C2 (single isomer, unassigned) [Example 80]
46	> 50	0.047	COc1ccc(-c2cn3cc(C4CCN(C5CC6(C5)CN(CC(C)C)C6)CC4)cc(C)c3n2)cc1OC [Example 15, 2-(3,4-dimethoxyphenyl)-6-(1-(2-isobutyl-2-azaspiro[3.3]heptan-6-yl)piperidin-4-yl)-8-methylimidazo[1,2-a]pyridine]
12.7	47.4	0.02	CC(C)CN1CCCC(N2CCC(c3cc(F)c4nc(-c5ccc(S(C)(=O)=O)cc5)cn4c3)CC2)CC1 (single isomer, unassigned) [Example 125, 8-fluoro-6-(1-(1-isobutylazepan-4-yl)piperidin-4-yl)-2-(4-(methylsulfonyl)phenyl) imidazo[1,2-a]pyridine]
15.8	> 50	0.023	CS(=O)(=O)c1ccc(-c2cn3c(n2)CC[C@@H](C2CCN(C4CC5CCC(C4)N5CC4CC4)CC2)C3)cc1 (single isomer, unassigned) [Example 141]
2.1	> 50	0.09	COc1ccc(-c2cn3c(n2)CCC(C2CCN(C4CC5(C4)CN(C(C)C)C5)CC2)C3)cc1OC (racemic) [Example 45, 2-(3,4-dimethoxyphenyl)-6-(1-(2-isopropyl-2-azaspiro[3.3]heptan-6-yl)piperidin-4-yl)-5,6,7,8-tetrahydroimidazo[1,2-a]pyridine]
6	> 50	0.045	COc1ccc(-c2cn3c(n2)CCC(C2CCN(C4CCN(C5CC5)CC4)CC2)C3)cc1OC (single isomer, unassigned) [Example 38, 6-(1′-cyclopropyl-[1,4′-bipiperidin]-4-yl)-2-(3,4-dimethoxyphenyl)-5,6,7,8-tetrahydroimidazo[1,2-a]pyridine]
